Assay results published in the NIST ThermoML archive (doi:10.1021/je049544x).

Columns and labels:
[1] = xn = mol fraction of the nth substance listed; details: 298.15 K, 101.3 kPa, Liquid; for speed of sound: Sing-around technique in a fixed-path interferometer
[2] = refractive index (Na D-line) (dimensionless); xn = mol fraction of the nth substance listed; details: 298.15 K, 101.3 kPa, Liquid, Standard Abbe refractometry
[3] = refractive index (Na D-line) (dimensionless); details: 298.15 K; 101.33 kPa; Liquid; Standard Abbe refractometry
[4] = Liquid; for mass density / speed of sound: 298.15 K, 101.3 kPa; for speed of sound: Sing-around technique in a fixed-path interferometer

CO [methanol] + CCOC(=O)OCC
x1 = 1
Details | mass density [kg/m3] | refractive index | speed of sound [m/s]
[1] | 786.56 | – | 1101.8
[2] | – | 1.32634 | –

C=COC(C)=O [vinyl acetate]
Details | mass density [kg/m3] | refractive index | speed of sound [m/s]
[3] | – | 1.39253 | –
[4] | 925.59 | – | 1115.6

Details | vapor or sublimation pressure [kPa]
[4], 346.1 K | 101.3

C=COC(C)=O [vinyl acetate] + CCOC(=O)OCC
Details | mass density, [1] [kg/m3] | refractive index, [2] | speed of sound, [1] [m/s]
x1 = 0.043 | 967.68 | 1.3826 | 1174.2
x1 = 0.105 | 965.65 | 1.3832 | 1171.2
x1 = 0.17 | 963.45 | 1.38373 | 1167.9
x1 = 0.193 | 962.74 | 1.38396 | 1166.9
x1 = 0.254 | 960.55 | 1.38458 | 1163.6
x1 = 0.299 | 958.92 | 1.385 | 1161.2
x1 = 0.353 | 956.87 | 1.3855 | 1158.2
x1 = 0.407 | 954.79 | 1.38602 | 1155.2
x1 = 0.458 | 952.74 | 1.38655 | 1152.3
x1 = 0.507 | 950.71 | 1.38706 | 1149.3
x1 = 0.556 | 948.6 | 1.38757 | 1146.4
x1 = 0.598 | 946.73 | 1.38804 | 1143.7
x1 = 0.65 | 944.3 | 1.38859 | 1140.4
x1 = 0.697 | 942.05 | 1.38917 | 1137.2
x1 = 0.744 | 939.73 | 1.38968 | 1134.1
x1 = 0.803 | 936.72 | 1.39031 | 1130.1
x1 = 0.85 | 934.22 | 1.39087 | 1126.7
x1 = 0.901 | 931.44 | 1.39143 | 1123.1
x1 = 0.946 | 928.87 | 1.39197 | 1119.8
x1 = 1 | 925.59 | 1.39253 | 1115.6

CCOC(=O)OCC [diethyl carbonate]
Details | mass density [kg/m3] | refractive index | speed of sound [m/s]
[3] | – | 1.38221 | –
[4] | 969 | – | 1176.1

Details | vapor or sublimation pressure [kPa]
[4], 399.6 K | 101.3

CCOC(=O)OCC [diethyl carbonate] + C=COC(C)=O
x2 = 0
Details | mass density [kg/m3] | refractive index | speed of sound [m/s]
[1] | 969 | – | 1176.1
[2] | – | 1.38221 | –

CO [methanol]
Details | mass density [kg/m3] | refractive index | speed of sound [m/s]
[3] | – | 1.32634 | –
[4] | 786.56 | – | 1101.8

Details | vapor or sublimation pressure [kPa]
[4], 337.9 K | 101.3

CCOC(=O)OCC [diethyl carbonate] + CO
Details | mass density, [1] [kg/m3] | refractive index, [2] | speed of sound, [1] [m/s]
x2 = 0 | 969 | 1.38221 | 1176.1
x2 = 0.063 | 964.93 | 1.38098 | 1174.8
x2 = 0.098 | 962.48 | 1.38026 | 1174.1
x2 = 0.159 | 958.15 | 1.37901 | 1171.5
x2 = 0.192 | 955.62 | 1.37825 | 1169.9
x2 = 0.251 | 950.7 | 1.3769 | 1167
x2 = 0.302 | 946.14 | 1.37563 | 1164.3
x2 = 0.371 | 939.23 | 1.37345 | 1160.6
x2 = 0.415 | 934.4 | 1.37205 | 1158.1
x2 = 0.453 | 929.92 | 1.3705 | 1155.9
x2 = 0.49 | 925.16 | 1.36915 | 1153.8
x2 = 0.543 | 917.68 | 1.367 | 1150.2
x2 = 0.592 | 910.04 | 1.36457 | 1146.9
x2 = 0.655 | 898.92 | 1.36118 | 1142.2
x2 = 0.69 | 892 | 1.359 | 1139.5
x2 = 0.75 | 878.54 | 1.35486 | 1134.1
x2 = 0.8 | 865.37 | 1.3509 | 1129.2
x2 = 0.848 | 850.75 | 1.34641 | 1123.8
x2 = 0.897 | 833.8 | 1.34105 | 1117.8
x2 = 0.948 | 812.41 | 1.3344 | 1110.4
